From patent publication US20240415859A1, “USE OF ISORHOIFOLIN AND DERIVATIVE THEREOF IN PROMOTING NERVE REPAIR” (priority 2021, published 2024)

Experiments:
[1] = tested on: retinal explants; assay: Ex vivo retinal explant neuronal tissue repair; assay type: cell-based, C57BL/6 mice; settings: P8 mouse retinal explants, 9 μM or 90 μM, five days, vs ddH2O
Experimental: Retinal explants were obtained from C57BL/6 mice at postnatal day 8. Following the sacrifice of mice, the eyes were enucleated, and the eyeballs were dissected using forceps and microscissors to separate the retina and remove the vitreous. Subsequently, the dissected retinas were quartered and trimmed along the edges of the tissue using microscissors. Each quarter was cultured on an 18 mm round coverslip and placed in a 12-well plate inside a CO2 incubator at 35° C. for five days. The culture medium was replaced daily with fresh medium containing either 9 μM or 90 μM Isorhoifolin. On the fifth day of culture, the retinal tissues were fixed with a mixture of 0.1% glutaraldehyde solution and 4% paraformaldehyde at room temperature for one hour. Immunostaining was performed using primary antibodies against the axonal marker beta-III-tubulin (TUJ1) and DAPI to label neurons and cell nuclei, respectively. Images were acquired using a super-resolution upright confocal microscope (LSM-800, Carl Zeiss). ImageJ software was utilized for image analysis, wherein the tissue boundary was delineated to calculate the perimeter and the area of neuronal fibers outside the tissue boundary. The ratio of neuronal fiber area to tissue boundary perimeter was then calculated to determine the unit perimeter neuronal fiber length.

[2] = tested on: motor coordination after brain injury; assay: Controlled cortical impact (CCI) brain injury model, horizontal bar test; assay type: in vivo; settings: mice, 14 or 140 μg/kg intranasal at 0, 2, 4, 6, 8, 10, 12 Dpi, tested 1, 3, 6, 10, 13 Dpi, vs ddH2O and Sham
Experimental: Using the horizontal bar test, mice were placed on brass rods positioned at a height of 49 cm above the ground, with lengths of 38 cm and diameters of 2 mm, 4 mm, and 6 mm. Mice were required to grasp the brass rod with their forepaws, and their ability to move and coordinate was assessed by measuring the time spent on the brass rod and whether they reached the platform at the end of the rod. Evaluation criteria were as follows: 1 point for 1-5 seconds, 2 points for 5-10 seconds, 3 points for 10-20 seconds, 4 points for 20-30 seconds, and 5 points for over 30 seconds or reaching the platform. The experimental model, as depicted in FIG. 10, involved pre-training at −5, −3, and −1 days post injury (Dpi) (5, 3, and 1 day(s) before brain injury). At 0 Dpi, the controlled cortical impact model (CCI model) was used to induce brain injury in mice. Subsequently, at 0, 2, 4, 6, 8, 10, and 12 Dpi, mice were administered Isorhoifolin at doses of 14 or 140 μg/kg via intranasal delivery. Horizontal bar experiments were conducted at 1, 3, 6, 10, and 13 Dpi.

[3] = tested on: injured brain sections; assay: Ex vivo 3D brain tissue slice culture, scalpel injury; assay type: cell-based; settings: E18 rat brain slices 350 μm, added every day, 96 hours, vs ddH2O
Excerpt: For the experiment, we took out the brain of E18 rat embryos and embedded in low-melting agarose. The brains were sectioned using Leica microtome VT100. The tissue sections were collected with 350 μm thick and injured using a scalpel. And placed them in inserts within a 6-well plate. This culturing method allows the brain slices to be exposed to both medium and air, facilitating a more realistic representation of the interactions between neuronal cells and other brain cells, as well as the three-dimensional structure, compared to in vitro culture. ddH2O or Isorhoifolin was added to injured brain sections every day. After 96 hours, immunostaining was performed. TUJ1 antibody was used to label neuron cells. GFAP antibody was used to label glial cells. DAPI was used to label nucleus. The experimental procedure for the Isorhoifolin derivative Narirutin is also depicted in FIG. 6. Took out the brain of E18 rat embryos and embedded in low-melting agarose. The brains were sectioned using Leica microtome VT100. The tissue sections were collected with 350 μm thick and injured using a scalpel. And placed them in inserts within a 6-well plate. […]

[4] = tested on: Neuro2a cells; assay: CellTiter-Glo cell viability assay (cytotoxicity); assay type: cell-based
Excerpt: Utilizing the CellTiter-Glo cell viability assay to assess the toxicity of Isorhoifolin on Neuro2a cells. CellTiter-Glo cell viability assay can detect the level of ATP in neuro2a cells after treatment of compounds to evaluate the survival rate.

[5] = tested on: hippocampal neurons; assay: In vitro neural repair assay, injured hippocampal neurons (gap closure rate); assay type: cell-based; settings: E18 rat hippocampal neurons, 72 hours
Experimental: The experimental procedure is as depicted in FIG. 1. Removed the brain of E18 rat embryos and dissected into cortex and hippocampus. Subsequently, the cortex and hippocampus were separated into cortical neurons and hippocampal neurons, respectively. Then, seeded hippocampal neurons on 48-well plates. The first day that neurons are cultured in vitro is defined as day in vitro 0 (DIV0). On DIV2, Cytosine beta-D-arabinoside (AraC) was added to neurons to inhibit the proliferation of glial cells. On DIV8, neurons were injured using pipette tips (p10 tips) and various concentrations of Isorhoifolin was added. After 72 hours, immunostaining was performed. TUJ1 antibody was used to label neuronal cells to observe the regrowth of neurites. Images were taken using Observer Z1 microscope. As depicted in FIG. 2, the degree of neuronal axon regeneration was quantified using the gap closure rate. White dashed lines indicate the borders of injury gap, the central black area represents the region scratched by the tip of a pipette tips. The newly regenerated neurites grow from the white dashed lines toward the center of the gap. To quantify the results, we measured the lengths of gap (Lg) and distance between regenerated neurites (Ln) every 50 μm. […] Gap closure rate is calculated using the formula: (Lg−Ln)/Lg. […]

[6] = tested on: cortical neurons; assay: In vitro neural repair assay, injured cortical neurons (gap closure rate); assay type: cell-based; settings: E18 rat cortical neurons, injured DIV8, 10 nM and 100 nM, 72 hours, standardized against 0.1% DMSO
Excerpt: As depicted in FIG. 2, the degree of neuronal axon regeneration was quantified using the gap closure rate. White dashed lines indicate the borders of injury gap, the central black area represents the region scratched by the tip of a pipette tips. The newly regenerated neurites grow from the white dashed lines toward the center of the gap. To quantify the results, we measured the lengths of gap (Lg) and distance between regenerated neurites (Ln) every 50 μm. After unbiasedly drawing ten lines of equal distance, the average distance between neurites is taken: Length of gap between regenerated neurons (Ln). Gap closure rate is calculated using the formula: (Lg−Ln)/Lg. Scale bar=100 μm. Images were taken using Observer Z1 microscope. The experimental procedure is also as depicted in FIG. 1. Removed the brain of E18 rat embryos and dissected into cortex and hippocampus. Subsequently, the cortex and hippocampus were separated into cortical neurons and hippocampal neurons, respectively. Then, seeded cortical neurons on 48-well plates. The first day that neurons are cultured in vitro is defined as day in vitro 0 (DIV0). On DIV2, Cytosine beta-D-arabinoside (AraC) was added to neurons to inhibit the proliferation of glial cells. On DIV8, neurons were injured using pipette tips (p10 tips) and 10 nM and 100 nM Narirutin was added. […]

Compound | recovery of injured retinal neurons (unit perimeter neuronal fiber length) [1] | motor coordination recovery (horizontal bar test score) [2] | neurite outgrowth after injury in ex vivo 3D brain slice culture [3] | toxicity towards Neuro2a cells [4] | IC50 ([4]; Mus musculus, N2a, CellTiter-Glo, read-out: IC50 (cell viability, ATP level)) | neurite regrowth after injury (gap closure rate) ([5]; injured DIV8, various concentrations, TUJ1 staining) | neurite regeneration after injury (gap closure rate) [6] | neurite regeneration after injury (gap closure rate) ([5]; injured DIV8, 1 nM and 10 nM, standardized against 0.1% DMSO)
C[C@@H]1O[C@@H](OC[C@H]2O[C@@H](Oc3cc(O)c4c(=O)cc(-c5ccc(O)cc5)oc4c3)[C@H](O)[C@@H](O)[C@@H]2O)[C@H](O)[C@H](O)[C@H]1O [Isorhoifolin] | significant recovery of injured retinal neurons | motor coordination was similar to that of the Sham (surgery control) group | promotes neurite outgrowth after injury in ex vivo 3D brain slice culture | low toxicity | ~11.6 mM | promotes neurite regrowth after injury in hippocampal neurons |  | 
Narirutin |  |  | promotes neurite outgrowth after injury in ex vivo 3D brain slice culture |  |  |  | effectively promotes dendritic outgrowth in cortical neurons | effectively promotes dendritic outgrowth in hippocampal neurons
